Values of other authors in US8642577B2 (priority 2005, dated 2014).

System: poxvirus
Conditions: in vivo, po

SMILES	activity against poxvirus when given orally
Nc1ccn(C[C@H]2COP(=O)(O)CO2)c(=O)n1 [cCDV, cyclic cidofovir]	inactive when given orally
Nc1ccn(C[C@@H](CO)OCP(=O)(O)O)c(=O)n1 [CDV, cidofovir]	inactive when given orally
